Seven molecules from patent US5516795A, “Heteroatom substituted propanyl derivatives having 5-lipoxygenase inhibitory activity” (Abbott Laboratories, priority 1994, dated 1996) can be followed below.

Molecules are shown by their SMILES. pIC50: −log10 of the molar value.

This assay has as its target T1, 5-Lipoxygenase (Homo sapiens, UniProt P09917).
T1 construct: Human heparinized whole blood was preincubated with test compounds; endogenous in cells; host or cells: human heparinized whole blood (endogenous enzyme of the blood cells)
T1 sequence (P09917 1-674): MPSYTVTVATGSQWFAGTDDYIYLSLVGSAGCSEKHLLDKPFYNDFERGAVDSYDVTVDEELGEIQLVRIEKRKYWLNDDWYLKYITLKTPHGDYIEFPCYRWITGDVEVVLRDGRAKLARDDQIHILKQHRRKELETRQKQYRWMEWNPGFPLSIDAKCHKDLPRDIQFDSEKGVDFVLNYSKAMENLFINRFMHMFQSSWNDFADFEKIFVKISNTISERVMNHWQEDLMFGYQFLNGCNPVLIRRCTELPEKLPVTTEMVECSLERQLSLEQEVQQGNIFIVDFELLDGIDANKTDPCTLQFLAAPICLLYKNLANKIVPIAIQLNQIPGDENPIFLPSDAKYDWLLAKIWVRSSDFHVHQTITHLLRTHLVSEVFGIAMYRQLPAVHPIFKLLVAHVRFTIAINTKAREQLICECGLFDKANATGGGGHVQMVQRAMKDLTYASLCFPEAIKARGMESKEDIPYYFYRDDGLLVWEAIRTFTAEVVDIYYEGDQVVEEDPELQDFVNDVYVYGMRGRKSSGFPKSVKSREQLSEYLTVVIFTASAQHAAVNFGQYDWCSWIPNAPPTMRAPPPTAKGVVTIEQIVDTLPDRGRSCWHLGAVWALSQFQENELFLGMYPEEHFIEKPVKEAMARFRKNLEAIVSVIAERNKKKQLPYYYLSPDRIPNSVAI
Nature of the assay: Inhibition of calcium ionophore A23187-induced LTB4 biosynthesis in human whole blood (5-lipoxygenase inhibition). Type of assay: cell-based. The following applies: A23187 8.3 μM; for inhibition at 0.1 µM: @ 0.10 μM. On the procedure:
Lipoxygenase Inhibition Determination
Inhibition of leukotriene biosynthesis was evaluated in an assay, involving calcium ionophore-induced LTB4 biosynthesis expressed human whole blood. Human heparinized whole blood was preincubated with test compounds or vehicle for 15 min at 37° C. followed by calcium ionophore A23187 challenge (final concentration of 8.3 μM) and the reaction terminated after 30 min by adding two volumes of methanol containing prostaglandin B2 as an internal recovery standard. The methanol extract was analyzed for LTB4 using a commercially available radioimmunoassay.
In Vitro Inhibitory Potencies of Compounds
of this Invention Against 5-Lipoxygenase from
Stimulated LTB4 Formation in Human Whole Blood

The mark [1] stands for this setting: human whole blood, read-out: In vitro inhibition of 5-lipoxygenase / stimulated LTB4 formation (% printed under head "IC50 (10^-6 M)").

For the molecule `CO/N=C(\c1cc(F)cc(OCc2ccc(N(C)C(=O)N(C)C)cc2)c1)[C@H]1COC(C)(C)O1` [Example 1, E-(4S)-O-methyl-2,2-dimethyl-4-[(5-fluoro-3-(4-(N',N'-dimethylaminocarbonyl-N-methylamino)benzyloxy)phenyl)oximinomethyl]-1,3-dioxolane], the inhibition at 0.1 µM under setting [1] was found to be 100%.
Consider `CO/N=C(\c1cc(F)cc(OCc2ccc(N(C)C(C)=O)cc2)c1)[C@H]1COC(C)(C)O1` [Example 2, E-(4S)-O-methyl-2,2-dimethyl-4-[(5-fluoro-3-(4-(N-acetyl-N-methylamino)benzyloxy)phenyl)oximinomethyl]-1,3-dioxolane], for which the inhibition at 0.2 µM (@ 0.20 μM, human whole blood, read-out: In vitro inhibition of 5-lipoxygenase / stimulated LTB4 formation (% printed under head "IC50 (10^-6 M)")) turned out to be 82%.
As for `C=CCN(C)c1ccc(Sc2cccc(/C(=N\OC)[C@H]3COC(C)(C)O3)c2)cc1` [Example 3 (E oxime), E-(4S)-O-methyl-2,2-dimethyl-4-[(3-(4-(N-allyl-N-methylamino)phenylthioxyl)phenyl)oximinomethyl]-1,3dioxolane], the negative logarithm of the IC50 (pIC50) (stimulated LTB4 formation in human whole blood, read-out: IC50 (10^-6 M)) was 7.30.
On to `C=CCN(C)c1ccc(Sc2cccc(/C(=N/OC)[C@H]3COC(C)(C)O3)c2)cc1` [Example 3 (Z oxime), Z-(4S)-O-Methyl-2,2-dimethyl-4-[(3-(4-(N-allyl-N-methylamino)phenylthioxyl)phenyl)oximinomethyl]-1,3-dioxolane], for which the inhibition at 6.25 µM under setting [1] turned out to be 99%.
Still for that read-out and setting: next, `CO/N=C(/c1cccc(Sc2ccc(N(C)C(=O)N(C)C)cc2)c1)[C@H]1COC(C)(C)O1` [Example 4, Z-(4S)-O-methyl-2,2-dimethyl-4-[(3-(4-(N',N'-dimethylaminocarbonyl-N-methylamino)phenylthioxyl)phenyl)oximinomethyl]-1,3-dioxolane]: 100%.
In the case of `CO/N=C(\c1cccc(Sc2ccc(N(C)C(=O)N(C)C)cc2)c1)[C@H]1COC(C)(C)O1` [Example 5, E-(4S)-O-methyl-2,2-dimethyl-4-[(3-(4-(N',N': dimethylaminocarbonyl-N-methylamino)phenylthioxyl)phenyl)oximinomethyl]-1,3: dioxolane], where the note is “@ 0.78 μM, human whole blood, read-out: In vitro inhibition of 5-lipoxygenase / stimulated LTB4 formation (% printed under head "IC50 (10^-6 M)")”, the inhibition at 0.78 µM came to 100%.
Regarding `COC[C@@H](OC)[C@@H](OC)c1cc(F)cc(OCc2ccc(N(C)C(=O)N(C)C)cc2)c1` [Example 14, anti-(1S, 2R)-1-[(5-fluoro-3-(4-(N', N'-dimethylaminocarbonyl-N-methylamino)benzyloxy)phenyl)]-1,2,3-trimethoxypropane], the inhibition at 0.1 µM under setting [1] stood at 49%.

Broadly, the pIC50 is the IC50 on a negative log10 scale, so that one unit is a factor of ten.
